Reference: US7939548B2, “Certain chemical entities, compositions, and methods” (Cytokinetics, Inc., priority 2006, dated 2011)

Biological target: T1, chicken gizzard smooth muscle myosin subfragment-1 chemically crosslinked to either cardiac or skeletal actin (Gallus gallus, UniProt P10587)
T1 construct: chicken gizzard smooth muscle myosin subfragment-1
Experiment: Smooth muscle myosin ATPase dose response assay (pyruvate kinase/horseradish peroxidase/pyruvate oxidase-coupled)
Assay type: biochemical
Conditions: ATPase activity of crosslinked smooth muscle actomyosin (subfragment-1); amplex red fluorescence; 4 parameter fit; read-out: IC50 Arithmetic Mean
Experimental: Screening assays were performed using a pyruvate kinase and lactate dehydrogenase-coupled ATPase assay containing the following reagents: Potassium PIPES (50 mM), MgCl2 (3 mM), KCl (100 mM), ATP (0.15 mM), DTT (1 mM), BSA (0.1 mg/ml), NADH (0.5 mM), PEP (1.5 mM), pyruvate kinase (4 U/ml), lactate dehydrogenase (8 U/ml), and antifoam (50 ppm) (concentrations expressed are final assay concentrations). The pH was adjusted to 6.80 at 22 °C by addition of potassium hydroxide. Lead optimization assays were performed with a more sensitive pyruvate kinase/horseradish peroxidase/pyruvate oxidase-coupled ATPase assay containing the following reagents: Potassium PIPES (12 mM), MgCl2 (2 mM), KCl (100 mM), ATP (0.15 mM), BSA (0.05 mg/ml), potassium phosphate (2 mM), amplex red (0.1 mM), PEP (0.1 mM), pyruvate kinase (4 U/ml), horseradish peroxidase (0.5 U/ml), pyruvate oxidase (0.5 U/ml), and antifoam (50 ppm) (concentrations expressed are final assay concentrations). The pH was adjusted to 7.00 at 22 °C by addition of potassium hydroxide.
The protein components specific to this assay are chicken gizzard smooth muscle myosin subfragment-1 that has been chemically crosslinked to either cardiac or skeletal actin using an excess of 1-Ethyl-3-[3-dimethylaminopropyl]carbodiimide hydrochloride and N-hydroxysuccinimide. The exact concentration of the crosslinked smooth muscle myosin in the assay is determined empirically, by titration to achieve a desired rate of ATP hydrolysis. The concentration varies between protein preparations due to variations in the fraction of active molecules in each preparation.
Compound dose response assays are performed by first preparing a dilution series of test compound, each with an assay mixture containing potassium PIPES, MgCl2, KCl, ATP, BSA, potassium phosphate, amplex red, PEP, crosslinked smooth muscle actomyosin (subfragment-1), antifoam, and water. The assay is started by adding an equal volume of solution containing potassium Pipes, MgCl2, KCl, BSA, potassium phosphate, pyruvate kinase, horseradish peroxidase, pyruvate oxidase, antifoam, and water. ATP hydrolysis is monitored by measuring the fluorescence of amplex red (excitation at 480 nm, emission at 615 nm). The resulting dose response curve is fit by the 4 parameter equation y=Bottom+((Top-Bottom)/(1+((IC50/X)^Hill))). The IC50 is defined as the concentration at which ATPase activity is midway between the top and bottom of the dose response curve.

Row | SMILES | IC50 [µM]
1 | C/C=C/c1nc(NCCc2cccc(F)c2)c(C(=O)NCc2cccnc2)cc1Br [(6-((1E)prop-1-enyl)-5-bromo-2-{[2-(3-fluorophenyl)ethyl]amino}(3-pyridyl))-N-(3-pyridylmethyl)carboxamide] | 0.78
2 | CC(C)=C(C)c1ccc(C(=O)NCc2cccnc2)c(NCCc2cccc(F)c2)n1 [(6-(1,2-dimethylprop-1-enyl)-2-{[2-(3-fluorophenyl)ethyl]amino}(3-pyridyl))-N-(3-pyridylmethyl)carboxamide] | 2.77
3 | CC(O)CN(C)c1ccc(C(=O)NCc2cccnc2)c(NCCc2cccc(F)c2)n1 (centres unmarked) [(2-{[2-(3-fluorophenyl)ethyl]amino}-6-[(2-hydroxypropyl)methylamino](3-pyridyl))-N-(3-pyridylmethyl)carboxamide] | 10.5
4 | Cc1cccc(CNC(=O)c2cc(Br)cnc2NCCc2cccc(F)c2)n1 [(5-bromo-2-{[2-(3-fluorophenyl)ethyl]amino}(3-pyridyl))-N-[(6-methyl(2-pyridyl))methyl]carboxamide] | 17.7
5 | COC(=O)/C=C(\C)c1ccc(C(=O)NCc2cccnc2)c(NCCc2cccc(F)c2)n1 [methyl (2E)-3-(6-{[2-(3-fluorophenyl)ethyl]amino}-5-[N-(3-pyridylmethyl)carbamoyl](2-pyridyl))but-2-enoate] | 3.45
6 | O=C(NCc1cccc(CN2C(=O)c3ccccc3C2=O)n1)c1cc(Br)cnc1NCCc1cccc(F)c1 [N-({6-[(1,3-dioxobenzo[c]azolin-2-yl)methyl](2-pyridyl)}methyl)(5-bromo-2-{[2-(3-fluorophenyl)ethyl]amino}(3-pyridyl))carboxamide] | 9.72
7 | NCc1cccc(CNC(=O)c2cc(-c3ccccn3)cnc2NCCc2cccc(F)c2)n1 [N-{[6-(aminomethyl)(2-pyridyl)]methyl}(2-{[2-(3-fluorophenyl)ethyl]amino}-5-(2-pyridyl)(3-pyridyl))carboxamide] | 16
8 | NCc1cccc(CNC(=O)c2cc(-c3ccncc3)cnc2NCCc2cccc(F)c2)n1 [N-{[6-(aminomethyl)(2-pyridyl)]methyl}(2-{[2-(3-fluorophenyl)ethyl]amino}-5-(4-pyridyl)(3-pyridyl))carboxamide] | 9.84
9 | COC(=O)c1ccc(NCCCCC(N)=O)nc1NCCc1cccc(F)c1 [methyl 6-[(4-carbamoylbutyl)amino]-2-{[2-(3-fluorophenyl)ethyl]amino}pyridine-3-carboxylate] | 44.3
10 | CNC(=O)CNC(=O)c1cc(-c2ccccc2C#N)cnc1NCCc1cccc(F)c1 [2-[(5-(2-cyanophenyl)-2-{[2-(3-fluorophenyl)ethyl]amino}(3-pyridyl))carbonylamino]-N-methylacetamide] | 18
11 | CNC(=O)CNC(=O)c1cc(-c2ccccc2)cnc1NCCc1cccc(F)c1 [2-[(2-{[2-(3-fluorophenyl)ethyl]amino}-5-phenyl(3-pyridyl))carbonylamino]-N-methylacetamide] | 15
12 | C/C=C/c1nc(NCCc2cccc(F)c2)c(C(=O)NCc2cccnc2CNC(=O)OC(C)(C)C)cc1F [(6-((1E)prop-1-enyl)-5-fluoro-2-{[2-(3-fluorophenyl)ethyl]amino}(3-pyridyl))-N-[(2-{[(tert-butoxy)carbonylamino]methyl}(3-pyridyl))methyl]carboxamide] | 11.7
13 | NCc1ncccc1CNC(=O)c1cc(F)cnc1NCCc1cccc(F)c1 [N-{[2-(aminomethyl)(3-pyridyl)]methyl}(5-fluoro-2-{[2-(3-fluorophenyl)ethyl]amino}(3-pyridyl))carboxamide] | 2.69
14 | NCc1cccc(CNC(=O)c2cc(-c3cccnc3)cnc2NCCc2cccc(F)c2)n1 [N-{[6-(aminomethyl)(2-pyridyl)]methyl}(2-{[2-(3-fluorophenyl)ethyl]amino}-5-(3-pyridyl)(3-pyridyl))carboxamide] | 7.39
15 | C/C=C/c1nc(NCCc2cccc(F)c2)c(C(=O)NCc2cccnc2)cc1C#N [(6-((1E)prop-1-enyl)-5-cyano-2-{[2-(3-fluorophenyl)ethyl]amino}(3-pyridyl))-N-(3-pyridylmethyl)carboxamide] | 0.361
16 | O=C(O)c1cc(Br)cnc1NCCc1cccc(F)c1 [5-bromo-2-{[2-(3-fluorophenyl)ethyl]amino}pyridine-3-carboxylic acid] | 11.2

Second part, the compound after the results:

Row | IC50 [µM] | SMILES
17 | 55.1 | CN(C)C(=O)CCCCNc1ccc(C(=O)NCc2cccnc2)c(NCCc2cccc(F)c2)n1 [5-[(6-{[2-(3-fluorophenyl)ethyl]amino}-5-[N-(3-pyridylmethyl)carbamoyl](2-pyridyl))amino]-N,N-dimethylpentanamide]
18 | 13.1 | O=C(NCc1cccnc1)c1ccc(NCCO)nc1NCCc1cccc(F)c1 [(2-{[2-(3-fluorophenyl)ethyl]amino}-6-[(2-hydroxyethyl)amino](3-pyridyl))-N-(3-pyridylmethyl)carboxamide]
19 | 38 | CNC(=O)CCCCNc1ccc(C(=O)NCc2cccnc2)c(NCCc2cccc(F)c2)n1 [5-[(6-{[2-(3-fluorophenyl)ethyl]amino}-5-[N-(3-pyridylmethyl)carbamoyl](2-pyridyl))amino]-N-methylpentanamide]
20 | 0.927 | COC/C=C/c1ccc(C(=O)NCc2cccnc2)c(NCCc2cccc(F)c2)n1 [(6-((1E)-3-methoxyprop-1-enyl)-2-{[2-(3-fluorophenyl)ethyl]amino}(3-pyridyl))-N-(3-pyridylmethyl)carboxamide]
21 | 26.8 | O=C(NCc1cccnc1)c1cccnc1NCCc1cccc(F)c1 [(2-{[2-(3-fluorophenyl)ethyl]amino}(3-pyridyl))-N-(3-pyridylmethyl)carboxamide]
22 | 8.47 | O=C(NCc1cccnc1)c1ccc(NCCCO)nc1NCCc1cccc(F)c1 [(2-{[2-(3-fluorophenyl)ethyl]amino}-6-[(3-hydroxypropyl)amino](3-pyridyl))-N-(3-pyridylmethyl)carboxamide]
23 | 0.302 | C/C=C/c1ccc(C(=O)NCc2cccnc2)c(NCCc2cccc(F)c2)n1 [(6-((1E)prop-1-enyl)-2-{[2-(3-fluorophenyl)ethyl]amino}(3-pyridyl))-N-(3-pyridylmethyl)carboxamide]
24 | 4.92 | CN(C)c1ccc(C(=O)NCc2cccnc2)c(NCCc2cccc(F)c2)n1 [(6-(dimethylamino)-2-{[2-(3-fluorophenyl)ethyl]amino}(3-pyridyl))-N-(3-pyridylmethyl)carboxamide]
25 | 14 | NC(=O)c1ccc(C(=O)NCc2cccnc2)c(NCCc2cccc(F)c2)n1 [6-{[2-(3-fluorophenyl)ethyl]amino}-5-[N-(3-pyridylmethyl)carbamoyl]pyridine-2-carboxamide]
26 | 5.61 | O=C(NCc1cccnc1)c1ccc(NCc2cccnc2)nc1NCCc1cccc(F)c1 [(2-{[2-(3-fluorophenyl)ethyl]amino}-6-[(3-pyridylmethyl)amino](3-pyridyl))-N-(3-pyridylmethyl)carboxamide]
27 | 8.18 | COCCCc1ccc(C(=O)NCc2cccnc2)c(NCCc2cccc(F)c2)n1 [(2-{[2-(3-fluorophenyl)ethyl]amino}-6-(3-methoxypropyl)(3-pyridyl))-N-(3-pyridylmethyl)carboxamide]
28 | 42.8 | NC(=O)CCCNc1ccc(C(=O)NCc2cccnc2)c(NCCc2cccc(F)c2)n1 [(6-[(3-carbamoylpropyl)amino]-2-{[2-(3-fluorophenyl)ethyl]amino}(3-pyridyl))-N-(3-pyridylmethyl)carboxamide]
29 | 0.347 | CC(C)=Cc1ccc(C(=O)NCc2cccnc2)c(NCCc2cccc(F)c2)n1 [(2-{[2-(3-fluorophenyl)ethyl]amino}-6-(2-methylprop-1-enyl)(3-pyridyl))-N-(3-pyridylmethyl)carboxamide]
30 | 70.3 | CN(C)C(=O)CCCNc1ccc(C(=O)NCc2cccnc2)c(NCCc2cccc(F)c2)n1 [4-[(6-{[2-(3-fluorophenyl)ethyl]amino}-5-[N-(3-pyridylmethyl)carbamoyl](2-pyridyl))amino]-N,N-dimethylbutanamide]
31 | 34 | O=C(NCc1cccnc1)c1ccc(NCc2ccncc2)nc1NCCc1cccc(F)c1 [(2-{[2-(3-fluorophenyl)ethyl]amino}-6-[(4-pyridylmethyl)amino](3-pyridyl))-N-(3-pyridylmethyl)carboxamide]
32 | 17.3 | CN(C)C(=N)c1ccc(C(=O)NCc2cccnc2)c(NCCc2cccc(F)c2)n1 [(6-[(dimethylamino)iminomethyl]-2-{[2-(3-fluorophenyl)ethyl]amino}(3-pyridyl))-N-(3-pyridylmethyl)carboxamide]
